Laboratory results reported in US11655254B2, “Substituted piperazines as BTK inhibitors” (HUTCHISON MEDIPHARMA LIMITED, priority 2020, dated 2023).

What was measured:
[1] = system: CIA (collagen induced arthritis) rats; assay: Rat arthritis model induced by type II collagen (CIA); assay type: in vivo; settings: compared with vehicle control group
Procedure: An appropriate amount of bovine type II collagen (CII, Chondrex (Redmond, Wash., USA), Cat #20021) was weighed and dissolved in 0.1 mole of acetic acid (SPGC Sinopharm Chemical Reagent Co., Ltd (Shanghai, P.R. China), Cat #: 10000218.), which was formulated into a solution with a concentration of 6 mg/mL, stirred at 4° C. overnight, and added with an equal volume of Freund's incomplete adjuvant (Sigma-Aldrich.(St. Louis, Mo., USA), Cat #: SLBW0366.), fully emulsified to prepare an emulsion with a CII concentration of 3 mg/mL.
Female Lewis rats were purchased from Beijing Vital River Laboratory Animal Technology Co., Ltd. (certificate number 20200928Aazz0619000579, initial body weight of 110-130 grams), and 6 rats were randomly selected as a normal group; and all of the remaining rats were immunized. In the first immunization on day 0, the rats except those in the normal group were anesthetized with isoflurane (Hebei Yipin Pharmaceutical Co., Ltd., Lot: C002170601.), and then disinfected with 75% alcohol, and 0.2 mL of emulsion was injected intradermally at the base of the tail thereof. A second challenge was carried out on day 7, and 0.2 mL of emulsion was intradermally injected using the same method. Once the animals developed symptoms on day 10, the incidence conditions thereof were closely monitored.
After grouping, the normal group was not administered, and the rats in the other groups were administered with the control vehicle, 0.25 mg/kg and 4 mg/kg of the reference GDC-0853, and each dose of compound 1 orally once a day until the end of the experiment.
The paw volume was measured on day 10 after immunization, and the left and right hind paw volumes (V) were measured every day after the paw volume increase was detected.
The arthrosis paw volumes of the left and right hind limbs of each animal were measured, and the average paw volume (APV) was calculated according to the following formula: Average paw volume APV=(Vleft+Vright)/2
The average arthrosis paw volume of each animal before administration was used as the baseline (or considered 100% inhibition of inflammation). […]
The area under the curve (AUC) of the average paw volume swelling is the area under the curve of the arthrosis score swelling calculated by the trapezoid method, and the calculation formula is: AUCAPS=1/2×(APSd1+APSd2)×(d2−d1)+1/2×(APSd2+APSd3)×(d3−d2)+ . . . +1/2×(APSdn+APSd(n-1))×(dn−dn-1). […]
ED50 is calculated by XLfit software according to the AUC inhibition ratio of the area under the curve of the average paw volume swelling. […]

[2] = system: B cell activation in rat whole blood; assay: Determination of B cell activity in whole blood of rats (anti-rat IgD induced); assay type: cell-based; settings: anti-rat immunoglobulin D, 18 hours, flow cytometry B220/CD86, read-out: IC50 value, inhibiting B cell activation in rat whole blood
Procedure: In the determination of the compound activity, the collected peripheral whole blood of rat was added to a 96 well plate at 80 μL/well and cultured in a 5% CO2, 37° C. cell incubator. […]
On the second day, the 96-well plates were taken out and the flow cytometry antibody mixture (the final concentration of anti-rat B220PE antibody was 1 μg/mL and the final concentration of anti-rat CD86 FITC antibody was 1 μg/mL) diluted with PBS was added to each well of plate, which were incubated for 30 minutes in the dark, and then 50 […] of blood from each well was pipetted to the freshly prepared 500 μL of lysis buffer to lyse red blood cells. The plates were shaken for 20 minutes, centrifuged to remove the supernatant, then washed, fixed, and detected on a flow cytometer.
The B cell activation in the sample was determined by flow dyeing method. […]
The inhibition ratio is calculated as follows: inhibition ratio (%)=100%−{(treating well for the test compound−negative control treating well)/(control treating well for anti-rat immunoglobulin D−negative control treating well)}×100%, wherein, […]

**Q.** Which “effect on paw volume” value ([1]; 0.25 mg/kg oral QD) does the source give for `C[C@H]1CN(C2COC2)C[C@H](C)N1c1ccc(Nc2cc(-c3ccnc(-n4ccn5c6c(cc5c4=O)CC(C)(C)C6)c3CO)cn(C)c2=O)nc1` [Compound 1, 2-(5-((5-((2S,6S)-2,6-dimethyl-4-(oxetan-3-yl)piperazin-1-yl)pyridin-2-yl)amino)-3′-(hydroxymethyl)-1-methyl-6-oxo-1,6-dihydro-[3,4′-bipyridin]-2′-yl)-7,7-dimethyl-7,8-dihydro-2H-cyclopenta[4,5]pyrrolo[1,2-a]pyrazin-1(6H)-one] here?
**A.** The value was “significantly increase the continuous improvement of paw volume swelling”.

**Q.** And the “effect on paw volume” value ([1]; 4 mg/kg oral QD)?
**A.** The value was “significantly increase the continuous improvement of paw volume swelling”.

**Q.** And the IC50 [2]?
**A.** Its IC50 is 1 nM.
